Here are results for 26 compounds from ChEMBL document CHEMBL1201862, “PubChem BioAssay data set” (2004).

The source made the active and inactive calls.

Experiment [1] addresses T1, Rac GTPase-activating protein 1 (Homo sapiens, UniProt Q9H0H5).
T1 sequence (Q9H0H5 whole entry): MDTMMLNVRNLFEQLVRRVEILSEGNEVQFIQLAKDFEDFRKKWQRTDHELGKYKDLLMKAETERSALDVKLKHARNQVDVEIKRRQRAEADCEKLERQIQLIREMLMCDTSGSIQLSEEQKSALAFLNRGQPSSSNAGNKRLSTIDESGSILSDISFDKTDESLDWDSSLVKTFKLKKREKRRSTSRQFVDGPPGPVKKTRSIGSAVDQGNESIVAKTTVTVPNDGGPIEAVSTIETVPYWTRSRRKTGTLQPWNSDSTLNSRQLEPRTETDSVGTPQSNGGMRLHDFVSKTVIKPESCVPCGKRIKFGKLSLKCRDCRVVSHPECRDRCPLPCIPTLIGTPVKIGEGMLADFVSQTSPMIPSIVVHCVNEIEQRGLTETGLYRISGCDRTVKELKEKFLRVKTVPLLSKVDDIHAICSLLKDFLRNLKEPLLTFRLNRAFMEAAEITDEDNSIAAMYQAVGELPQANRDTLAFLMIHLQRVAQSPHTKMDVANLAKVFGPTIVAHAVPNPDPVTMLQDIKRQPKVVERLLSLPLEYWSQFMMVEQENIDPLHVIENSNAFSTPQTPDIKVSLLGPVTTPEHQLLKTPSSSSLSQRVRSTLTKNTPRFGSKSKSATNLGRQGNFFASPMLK
Briefly: MgcRacGAP GTPase-activating activity inhibitors, confirmation, biochemical, ADP Hunter fluorescence, primary and confirmatory (AID 624330). The class given is functional.

A further experiment concerns the target Cytochrome P450 2C9 (Homo sapiens, UniProt P11712).
The target in the next experiment is Cytochrome P450 2D6 (Homo sapiens, UniProt P10635).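 Note: CYP2D6 member of a cytochrome P450 panel assay.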
A further experiment has as its target T2, Protein RecA (Mycobacterium tuberculosis, UniProt P9WHJ3).
T2 sequence (P9WHJ3 whole entry): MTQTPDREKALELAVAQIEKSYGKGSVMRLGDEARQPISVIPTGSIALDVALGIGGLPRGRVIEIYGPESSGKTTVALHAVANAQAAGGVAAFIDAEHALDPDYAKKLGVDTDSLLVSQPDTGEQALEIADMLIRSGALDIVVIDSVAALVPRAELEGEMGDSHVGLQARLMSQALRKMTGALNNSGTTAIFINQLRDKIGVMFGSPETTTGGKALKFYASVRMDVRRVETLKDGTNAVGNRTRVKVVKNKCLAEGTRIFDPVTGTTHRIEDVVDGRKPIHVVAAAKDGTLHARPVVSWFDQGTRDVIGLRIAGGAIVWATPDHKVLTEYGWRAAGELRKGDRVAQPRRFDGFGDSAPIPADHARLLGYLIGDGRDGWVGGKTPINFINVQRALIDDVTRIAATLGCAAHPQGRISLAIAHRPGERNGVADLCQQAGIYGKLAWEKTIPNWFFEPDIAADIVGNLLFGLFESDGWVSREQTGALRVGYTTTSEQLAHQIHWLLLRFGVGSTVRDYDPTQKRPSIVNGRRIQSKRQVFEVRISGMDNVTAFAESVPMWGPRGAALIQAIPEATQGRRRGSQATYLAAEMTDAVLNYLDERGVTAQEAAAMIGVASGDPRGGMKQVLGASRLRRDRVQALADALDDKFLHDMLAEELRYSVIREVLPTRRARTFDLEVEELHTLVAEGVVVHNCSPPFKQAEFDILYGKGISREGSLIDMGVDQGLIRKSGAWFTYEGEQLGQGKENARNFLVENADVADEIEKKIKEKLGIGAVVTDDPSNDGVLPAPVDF
Briefly: Fluorescence Cell-Free Homogeneous Dose Retest to Identify Inhibitors of RecA-Intein Splicing Activity. [Related pubchem assays (depositor defined):AID2097, AID2223, AID489010, AID492950]. The class given is functional.

Experiment [2] addresses T3, Replicative DNA helicase DnaB (Mycobacterium tuberculosis, UniProt P9WMR3).
T3 sequence (P9WMR3 whole entry): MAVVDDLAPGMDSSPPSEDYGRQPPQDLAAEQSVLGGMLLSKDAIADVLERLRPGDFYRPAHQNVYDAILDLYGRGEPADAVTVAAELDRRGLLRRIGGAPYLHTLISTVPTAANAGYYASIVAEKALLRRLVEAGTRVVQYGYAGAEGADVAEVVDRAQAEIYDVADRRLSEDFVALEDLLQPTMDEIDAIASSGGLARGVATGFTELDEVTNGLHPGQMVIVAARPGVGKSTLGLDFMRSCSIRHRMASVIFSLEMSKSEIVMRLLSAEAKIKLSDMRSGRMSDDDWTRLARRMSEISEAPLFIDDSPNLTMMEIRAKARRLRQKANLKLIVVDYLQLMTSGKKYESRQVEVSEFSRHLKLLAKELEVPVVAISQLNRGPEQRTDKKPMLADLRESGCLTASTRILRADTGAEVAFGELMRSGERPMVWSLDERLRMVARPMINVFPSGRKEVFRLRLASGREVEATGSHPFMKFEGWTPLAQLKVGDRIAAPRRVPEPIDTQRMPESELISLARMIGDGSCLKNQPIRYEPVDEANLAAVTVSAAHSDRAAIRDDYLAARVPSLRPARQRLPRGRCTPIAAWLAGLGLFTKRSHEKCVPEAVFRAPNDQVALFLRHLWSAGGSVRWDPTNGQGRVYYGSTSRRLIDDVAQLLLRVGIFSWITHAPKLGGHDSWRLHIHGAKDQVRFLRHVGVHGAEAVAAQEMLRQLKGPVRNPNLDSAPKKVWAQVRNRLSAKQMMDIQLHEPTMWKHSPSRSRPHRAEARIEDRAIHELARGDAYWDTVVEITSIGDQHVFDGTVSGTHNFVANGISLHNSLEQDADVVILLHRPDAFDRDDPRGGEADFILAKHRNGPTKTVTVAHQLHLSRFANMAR
Briefly: DnaB intein splicing inhibitors, dose response, biochemical, cell-free fluorescence (AID 449749). The experiment is classed as functional.

Experiment [3] in a line: HEp-2 cell cytotoxicity, dose response, cytotoxicity control for RSV inhibitor project, HTS (AID 2410). The following applies: human respiratory syncytial virus. The experiment is classed as functional.
Experiment [4] addresses T4, Corticotropin-releasing factor receptor 2/Corticotropin-releasing factor-binding protein (Homo sapiens, UniProt P24387+Q13324).
T4 sequence (Q13324 whole entry): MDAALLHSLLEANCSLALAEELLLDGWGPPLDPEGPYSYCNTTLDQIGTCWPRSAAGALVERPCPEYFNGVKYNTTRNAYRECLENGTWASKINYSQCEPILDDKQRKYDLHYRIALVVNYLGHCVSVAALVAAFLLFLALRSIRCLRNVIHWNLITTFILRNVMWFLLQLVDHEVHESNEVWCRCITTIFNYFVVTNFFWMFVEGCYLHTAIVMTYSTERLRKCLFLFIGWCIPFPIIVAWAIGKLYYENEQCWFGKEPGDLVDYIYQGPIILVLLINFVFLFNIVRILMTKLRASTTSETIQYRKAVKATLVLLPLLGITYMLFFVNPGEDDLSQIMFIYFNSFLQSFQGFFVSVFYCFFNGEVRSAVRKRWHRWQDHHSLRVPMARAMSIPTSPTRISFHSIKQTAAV
T4 sequence (P24387 whole entry): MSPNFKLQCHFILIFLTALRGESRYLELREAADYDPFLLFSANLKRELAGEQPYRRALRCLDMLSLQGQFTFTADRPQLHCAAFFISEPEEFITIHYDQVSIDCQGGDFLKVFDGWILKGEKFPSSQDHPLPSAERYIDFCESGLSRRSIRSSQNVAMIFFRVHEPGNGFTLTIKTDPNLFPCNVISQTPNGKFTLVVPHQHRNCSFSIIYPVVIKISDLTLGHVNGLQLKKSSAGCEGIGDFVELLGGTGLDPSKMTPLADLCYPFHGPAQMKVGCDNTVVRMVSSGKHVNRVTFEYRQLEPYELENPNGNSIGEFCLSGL
The experiment in a line: activators of CRF receptor 2 with binding protein – uHTS hits, confirmation (AID 602473). The experiment is classed as functional. Particulars: read-out: EC50_Mean.

The next experiment concerns INS1. Briefly: beta cell apoptosis inhibitors, cytokine rescue, dose response, luminescence, retest (AID 449756).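 Note: cell death triggered by IL-1 beta plus TNF-alpha plus IFN-gamma mixture; protective hits raise ATP signal compared with cytokine alone wells.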 The class given is functional, cell-based. The following applies: Rattus norvegicus.
For experiment [5], the target named is T4, Corticotropin-releasing factor receptor 2/Corticotropin-releasing factor-binding protein. Briefly: Dose Response confirmation of uHTS hits for small molecule antagonists of the CRF-binding protein and CRF-R2 receptor complex. The experiment is classed as functional. Particulars: read-out: IC50_Mean.
A short description of experiment [6]: inhibitors of intracellular T. cruzi replication, confirmation, NIH3T3 host cells, beta-gal luminescence (AID 2044).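 Note: intracellular parasites grown in NIH/3T3 mouse fibroblasts as host cells; luminescent beta-galactosidase reporter signal from transgenic T. cruzi replicating inside host cells; inhibitors lower the luminescence signal.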 The class given is functional, cell-based.
A short description of experiment [7]: cytotoxicity toward NIH3T3 fibroblasts, dose response, counter-screen, cell-based, ATP luminescence, mouse fibroblasts (AID 2010).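 Note: cells exposed to compound for about 90 hours before reading.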 The experiment is classed as functional.

Chain of Cytochrome P450 2C9 (P11712 whole entry): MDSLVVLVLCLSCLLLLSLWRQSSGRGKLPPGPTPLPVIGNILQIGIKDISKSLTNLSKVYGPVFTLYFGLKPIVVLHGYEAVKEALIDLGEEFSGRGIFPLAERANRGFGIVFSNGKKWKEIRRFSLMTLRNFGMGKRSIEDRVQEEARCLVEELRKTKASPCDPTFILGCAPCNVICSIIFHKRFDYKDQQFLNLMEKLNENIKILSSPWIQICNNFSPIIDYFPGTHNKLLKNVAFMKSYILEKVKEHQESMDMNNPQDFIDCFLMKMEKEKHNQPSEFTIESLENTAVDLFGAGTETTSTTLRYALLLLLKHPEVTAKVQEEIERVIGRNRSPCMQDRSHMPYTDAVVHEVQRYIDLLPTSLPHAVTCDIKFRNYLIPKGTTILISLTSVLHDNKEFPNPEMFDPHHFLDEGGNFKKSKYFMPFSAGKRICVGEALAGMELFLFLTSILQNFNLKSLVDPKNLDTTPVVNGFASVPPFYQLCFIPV
Chain of Cytochrome P450 2D6 (P10635 whole entry): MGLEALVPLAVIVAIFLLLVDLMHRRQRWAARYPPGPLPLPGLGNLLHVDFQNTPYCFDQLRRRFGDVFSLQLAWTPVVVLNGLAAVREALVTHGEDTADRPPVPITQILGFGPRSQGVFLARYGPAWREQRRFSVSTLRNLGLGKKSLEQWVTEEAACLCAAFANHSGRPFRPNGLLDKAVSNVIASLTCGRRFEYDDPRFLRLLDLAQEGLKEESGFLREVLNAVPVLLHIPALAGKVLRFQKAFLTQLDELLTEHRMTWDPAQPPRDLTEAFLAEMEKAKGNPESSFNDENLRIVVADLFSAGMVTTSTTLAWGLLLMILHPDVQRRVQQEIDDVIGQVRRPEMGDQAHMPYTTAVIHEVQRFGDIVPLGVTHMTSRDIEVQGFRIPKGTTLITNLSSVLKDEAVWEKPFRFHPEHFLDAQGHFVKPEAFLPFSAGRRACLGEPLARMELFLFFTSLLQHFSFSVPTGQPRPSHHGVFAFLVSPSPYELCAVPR

`COC(=O)C1=C(C)N(CC2CCCO2)C(=O)/C1=C\c1ccc(O)cc1` (stereo not drawn): the IC50 in [1] is 25 µM (active).
With `CC(=O)NCCn1c(SCC(=O)NCc2ccco2)nc2ccccc2c1=O`, the values for the AC50 (on Cytochrome P450 2C9; at Cytochrome P450 2D6; in [2]) were 25.1 µM (inconclusive), 44.7 nM (inconclusive) and 7.22 µM (active), respectively. Besides, on Protein RecA, the EC50 is 9.17 µM (active).
With `CCC1=NN2C(=N)/C(=C/c3ccc(OS(=O)(=O)c4ccccc4)cc3)C(=O)N=C2S1`, in experiment [3], the CC50 was > 50 µM (active).
Regarding `Cc1ccc2nc(Nc3ccc(Cl)cc3)c3nncn3c2c1`, in [3], the cytotoxic concentration (CC50) is 34.4 µM (active).
Take `COc1cc(/C=C/C(=O)OCC(=O)N(CC(C)C)c2c(N)n(Cc3ccccc3)c(=O)[nH]c2=O)ccc1O`: the IC50 in experiment [1] was 65.7 µM (active). The EC50 in experiment [4] was 2.73 µM (active).
Take `CCOc1cc(/C=N/NC(=O)C(=O)NCc2cccnc2)ccc1O`: the IC50 in experiment [1] is 54.5 µM (active).
Take `OCCCn1c(C(CO)Nc2nc(-c3ccc(Cl)cc3)cs2)nc2ccccc21` (stereo not drawn): in experiment [3], the CC50 was 15.5 µM (active).
Still for that read-out and setting: to `O=C(CSc1nnc(-c2ccccn2)n1Cc1ccco1)c1ccc(-c2ccccc2)cc1` belongs 34.3 µM (active).
As to `COc1cc(-c2nc3ccc(C)cn3c2NCc2ccccc2)ccc1SC1CCCCC1`, the AC50 in the experiment on INS1 is 4.87 µM (active).
Turning to `Cc1ccc(S(=O)(=O)N2CCN(C(=O)CN3CCN(c4ccc(O)cc4)CC3)CC2)cc1`, the IC50 in experiment [1] is 32.4 µM (active).
Regarding `O=C1CCC(C2CCc3cc(O)ccc3C2)C1` (stereo not drawn), in experiment [1], the IC50 was 70.4 µM (active).
For the compound `COc1cc(/C=C(\C#N)C(=O)Nc2ccc3c(c2)OCCO3)ccc1O`, the IC50 in experiment [1] was 34 µM (active); in [5], > 47.1 µM (inactive). Also, the results for the EC50 (on Protein RecA; in experiment [4]) were 13.9 µM (active) and > 53 µM (inactive), respectively. For the same compound, the AC50 in experiment [2] is 75.9 µM (active).
For `CN1c2ccccc2C(C)(C)[C@]12C=Cc1cc(O)ccc1O2`, the CC50 in experiment [3] was 7.32 µM (active).
Same read-out and setting: to `O=C(c1cc(S(=O)(=O)N2CCOCC2)ccc1F)N(CCc1ccccc1)Cc1ccccc1` belongs 29.8 µM (active).
`Nc1ccc(N2CCN(c3ccc(Cl)c(Cl)c3)CC2)cc1`: in [1], the IC50 was 18.1 µM (active).
On the same count and under the same terms, to `CC1CC(C)(C)N(C(=O)CN2CCN(C)CC2)c2ccccc21` (stereo not drawn) belongs 85.3 µM (active).
`N#CCC(=O)N/N=C/c1cc(-c2ccccc2)n(-c2ccc(Cl)cc2)c1-c1ccccc1`: the AC50 with INS1 was 3.21 µM (active). In addition, the results for the EC50 in [6] and in experiment [7] were 1.51 µM (active) and > 60 µM (inconclusive), respectively.
For `O=C(Cc1cccs1)Nc1cccc(-c2nnc(-c3ccco3)o2)c1`, in [3], the CC50 was > 12.5 µM (active).
As for `O=c1c2ccccc2nc(/C=C/c2ccc(O)c(O)c2)n1-c1ccccc1`, the IC50 in experiment [1] was 73.9 µM (active).
On to `C/C(=N\N1C(=O)c2ccccc2NC1c1ccccc1)c1ccccc1O` (stereo not drawn), for which the AC50 with INS1 was 2.24 µM (active). In addition, the EC50 was 2.13 µM (active) in [6] and 7.4 µM (active) in [7].
In the case of `CCOC(=O)C1=C(O)c2ccccc2C(=O)/C1=C\c1ccc(C)cc1`, the CC50 in experiment [3] is 31.5 µM (active).
In the case of `COc1ccc(C2CC(c3ccccc3)=NN2c2ccc(S(N)(=O)=O)cc2)cc1OC` (stereo not drawn), the CC50 in experiment [3] is 24.2 µM (active).
`O=C(Cc1ccc([N+](=O)[O-])cc1)Nc1cccnc1`: in the experiment with INS1, the AC50 is 21.1 µM (active).
On to `CC(C(=O)Nc1ccc2c(c1)OCO2)N1CCN(C)CC1` (stereo not drawn), for which the IC50 in [1] was 65.3 µM (active).
Take `Oc1ccccc1-[n+]1c(-c2ccccc2)cc(-c2ccccc2)cc1-c1ccccc1.[O-][Cl+3]([O-])([O-])[O-]`: the CC50 in [3] was 11.7 µM (active).
On to `COc1cc(/C=N/NC(=O)c2nc(-c3ccccc3)n(-c3ccccc3)n2)ccc1O`, for which the IC50 in experiment [1] is 38.7 µM (active).
